Source: ChEMBL document CHEMBL3596160, “From AChE to BACE1 inhibitors: The role of the amine on the indanone scaffold” (Bioorg Med Chem Lett, 2015)
pIC50: −log10 of the molar value. The source made the active and inactive calls. The rule behind the calls is not given here.

What was measured:
Acetylcholinesterase [1] = target: T1, Acetylcholinesterase (Homo sapiens, UniProt P22303)
Description: Inhibition of human recombinant AChE using acetylthiocholine iodide as substrate preincubated with enzyme for 20 mins prior to substrate addition by Ellman's method

[2] = (§1) Neurotoxicity against human SH-SY5Y cells assessed as inhibition of cell viability after 24 hrs by MTT assay; type: toxicity, cell-based; details: SH-SY5Y cells
Acetylcholinesterase [3] = target: T1, Acetylcholinesterase; assay: Inhibition of human recombinant AChE using acetylthiocholine iodide as substrate up to 50 uM preincubated with enzyme for 20 mins prior to substrate addition by Ellman's method
Beta-secretase 1 = Beta-secretase 1 (Homo sapiens, UniProt P56817); assay: Inhibition of human recombinant BACE1 using M-2420 as substrate preincubated with enzyme for 1 hr by FRET assay
Sequence of Beta-secretase 1 (P56817 whole entry): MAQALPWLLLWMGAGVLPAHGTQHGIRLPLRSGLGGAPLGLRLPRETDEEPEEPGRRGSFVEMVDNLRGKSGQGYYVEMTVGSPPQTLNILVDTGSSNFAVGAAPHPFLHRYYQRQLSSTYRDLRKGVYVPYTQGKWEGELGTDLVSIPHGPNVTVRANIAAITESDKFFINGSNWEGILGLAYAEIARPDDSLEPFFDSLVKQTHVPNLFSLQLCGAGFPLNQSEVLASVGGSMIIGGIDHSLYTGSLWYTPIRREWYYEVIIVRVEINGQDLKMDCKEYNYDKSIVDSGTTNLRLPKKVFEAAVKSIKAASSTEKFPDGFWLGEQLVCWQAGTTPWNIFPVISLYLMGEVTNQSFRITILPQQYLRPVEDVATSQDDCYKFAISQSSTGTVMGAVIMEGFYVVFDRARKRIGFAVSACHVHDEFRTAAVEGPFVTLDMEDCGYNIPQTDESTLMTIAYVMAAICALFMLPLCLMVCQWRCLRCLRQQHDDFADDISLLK

SH-SY5Y = assay: as §1; type: toxicity, cell-based; details: sh-sy5y, 24 h

T1 sequence (P22303 whole entry): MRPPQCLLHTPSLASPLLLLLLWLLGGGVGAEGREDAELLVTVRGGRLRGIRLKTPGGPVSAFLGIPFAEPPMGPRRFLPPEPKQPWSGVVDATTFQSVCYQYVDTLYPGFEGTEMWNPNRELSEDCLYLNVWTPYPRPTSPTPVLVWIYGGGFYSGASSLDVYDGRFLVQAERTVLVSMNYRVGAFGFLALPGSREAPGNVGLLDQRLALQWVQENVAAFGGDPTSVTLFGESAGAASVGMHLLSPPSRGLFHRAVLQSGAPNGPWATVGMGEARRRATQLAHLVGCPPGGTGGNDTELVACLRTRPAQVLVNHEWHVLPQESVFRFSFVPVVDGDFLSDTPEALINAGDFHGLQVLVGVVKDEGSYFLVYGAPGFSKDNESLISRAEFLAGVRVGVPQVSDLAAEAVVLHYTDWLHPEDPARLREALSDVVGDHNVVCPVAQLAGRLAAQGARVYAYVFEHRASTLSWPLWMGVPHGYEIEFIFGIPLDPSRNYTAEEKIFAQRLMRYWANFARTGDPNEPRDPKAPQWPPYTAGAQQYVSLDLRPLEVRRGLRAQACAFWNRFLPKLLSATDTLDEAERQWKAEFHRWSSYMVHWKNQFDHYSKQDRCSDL

SMILES	inhibition (Acetylcholinesterase [3])	pIC50 (Beta-secretase 1)	also measured
CN(Cc1ccccc1)Cc1ccc(/C=C2\CCc3cc(OCCCCCN4CCN(Cc5ccc(F)cc5)CC4)ccc3C2=O)cc1	–	–	pIC50 (Acetylcholinesterase [1]): 5.11
CN(Cc1ccccc1)Cc1ccc(/C=C2\Cc3ccc(OCCCCCN4CCCCC4)cc3C2=O)cc1	–	–	IC50 at 24 h [2]: 23.3 µM
CN(Cc1ccccc1)Cc1ccc(/C=C2\Cc3ccc(OCCCCCN4CCN(Cc5ccc(F)cc5)CC4)cc3C2=O)cc1	inactive	–	–
CN(Cc1ccccc1)Cc1ccc(/C=C2\Cc3ccc(OCCCCCN4CCC(n5c(=O)[nH]c6ccccc65)CC4)cc3C2=O)cc1	inactive	–	–
CN(Cc1ccccc1)Cc1ccc(/C=C2\CCc3cc(OCCCCCN4CCN(C(c5ccc(F)cc5)c5ccc(F)cc5)CC4)ccc3C2=O)cc1	inactive	–	–
CCOC(=O)C1(c2ccccc2)CCN(CCCCCOc2ccc3c(c2)C(=O)/C(=C/c2ccc(CN(C)Cc4ccccc4)cc2)C3)CC1	inactive	5.08	–
CN(Cc1ccccc1)Cc1ccc(/C=C2\Cc3ccc(OCCCCCN4CCN(C(c5ccc(F)cc5)c5ccc(F)cc5)CC4)cc3C2=O)cc1	inactive	5.60	Activity (SH-SY5Y): Non-toxic
CN(Cc1ccccc1)Cc1ccc(/C=C2\Cc3ccc(OCCCCCN4CCC(c5ccccc5)CC4)cc3C2=O)cc1	–	4.87	pIC50 (Acetylcholinesterase [1]): 4.21
CN(Cc1ccccc1)Cc1ccc(/C=C2\Cc3ccc(OCCCCCN4CCN(OC(=O)C(C)(C)C)CC4)cc3C2=O)cc1	inactive	5.49	Activity (SH-SY5Y): Non-toxic
CN(Cc1ccccc1)Cc1ccc(/C=C2\Cc3ccc(OCCCCCN4CCN(c5ccccc5)CC4)cc3C2=O)cc1	inactive	4.93	–
CN(Cc1ccccc1)Cc1ccc(/C=C2\Cc3ccc(OCCCCCN4CCC(=C(c5ccc(F)cc5)c5ccc(F)cc5)CC4)cc3C2=O)cc1	inactive	5.23	–
